{
  "source": "patent US20240016787A1",
  "about": "“METHODS FOR TREATMENT OF CANCER AND PHAGOCYTOSIS-DEFICIENCY RELATED DISEASES” (RDiscovery, LLC, priority 2020, published 2024)",
  "key": {"[1]": {"tested_on": "pancreatic and melanoma cancer cell lines", "experiment": "Anti-proliferative effects on cancer cell lines in vitro", "assay_type": "cell-based", "details": "AsPC-1, Capan-1, KP4, MIA PaCa-2, BxPC-3, A375, SK-MEL-28, MeWo", "protocol": "The effect of cilnidipine on cell proliferation of eight cancer cell lines is evaluated. Five pancreatic cancer cell lines are included, four containing KRAS mutations (AsPC-1 (G12D), Capan-1 (G12V), KP4 (M188V, G12D) and MIA PaCa-2 (G12C)), and one pancreatic cancer cell line with wild type KRAS, BxPC-3, in addition to three melanoma cell lines, two of which contain B-Raf mutations: A375 (V600E) and SK-MEL-28 (V600E), and one melanoma cell line with wild type B-Raf, MeWo."}, "[2]": {"tested_on": "J774.1 mouse macrophage cell line", "experiment": "In vitro phagocytosis of PE-labeled polystyrene beads by macrophages (flow cytometry)", "assay_type": "cell-based", "details": "0.3 μM, 1 μM, or 3 μM for 20 hours; beads 2.5 hours; vs DMSO vehicle", "protocol": "The effect of cilnidipine on phagocytosis by macrophages was evaluated in vitro using the J774.1 mouse macrophage cell line. Cells were seeded at 2×10^5 cells/well/200 μL of a 48 well plate and cultured for 24 hours in DMEM medium containing 10% FBS and antibiotics at 37° C. under 5% CO2. Cells were washed once and then incubated with cilnidipine at concentrations 0.3 μM, 1 μM, or 3 μM, or DMSO (vehicle) for 20 hours.\nThe level of phagocytosis was evaluated by adding 10 μL of DMEM medium containing 4×10^6 PE-labeled polystyrene beads (Fluoresbrite® Polychromatic Red Microspheres 2.0 μm) to cells and culturing them for 2.5 hours. Cells were then washed 3 times with PBS and collected. The level of phagocytic activity was assessed by flow cytometry, measuring the amount of fluorescent signal derived from the PE-labelled beads that were taken up by the cells, with cells treated with 0.1% DMSO used as negative control. The proportions of cells engulfing 1 or more, 2 or more, 3 or more, and 4 or more particles were measured."}, "[3]": {"tested_on": "Capan-1 human pancreatic ductal adenocarcinoma cells", "experiment": "Subcutaneous Capan-1 pancreatic cancer xenograft model in female BALB/c nude mice", "assay_type": "in vivo", "protocol": "A study of the in vivo therapeutic efficacy of cilnidipine as a single agent or in combination with gemcitabine in the treatment of the subcutaneous Capan-1 pancreatic cancer xenograft model in female BALB/c nude mice was performed.\nFemale BALB/c nude mice 7-9 weeks of age were used in the study.\nCapan-1 human pancreatic ductal adenocarcinoma cells were cultured in IMEM medium with 20% FBS at 37° C. and 5% CO2 in air atmosphere.\nEach mouse was inoculated subcutaneously in the right upper flank region with tumor cells (5×10^6 cells) in 0.1 ml of PBS with Matrigel (1:1) for tumor development.\nRandomization was started when the mean tumor size reached approximately 254.27 mm^3. A total of 48 mice were enrolled in the study and randomly allocated to the six study groups, with eight mice per group. Randomization was performed based on “Matched distribution” method (Study Director™ software, version 3.1.399.19). The date of randomization was denoted as day 0.\nAfter tumor inoculation, the animals were checked daily for morbidity and mortality. During routine monitoring, the animals were checked for any effects of tumor growth and treatments on behavior such as mobility, food and water consumption, body weight gain/loss (body weights were measured twice per week after randomization), eye/hair matting and any other abnormalities. Mortality and observed clinical signs were recorded for individual animals in detail.\nTumor volumes were measured twice per week after randomization in two dimensions using a caliper, and the volume was expressed in mm^3 using the formula: V=(L×W×W)/2, where V is tumor volume, L is tumor length (the longest tumor dimension) and W is tumor width (the longest tumor dimension perpendicular to L). Dosing as well as tumor and body weight measurements were conducted in a Laminar Flow Cabinet. Body weights and tumor volumes were measured by using Study Director™ software (version 3.1.399.19).\nThe vehicle used for cilnidipine was 5% DMSO and corn oil. The vehicle used for gemcitabine was saline. Dosing volume was adjusted for body weight (dosing volume=5/10 μL/g). Treatments were initiated on day 0 following randomization.\nThe study was planned so that (1) mice showing a body weight loss (BWL)>20% after one measurement would be sacrificed, (2) mice showing BWL>15% after one measurement would be given a dosing holiday in a separate cage alone with daily monitoring for 72 hours, while other mice in the same group would receive dosing as scheduled, with treatment of the isolated mouse resuming when the BWL had recovered to BWL<10%, and (3) mice showing a BWL>10% would receive supplemental gel. BWL was calculated based on the BW on the first day of treatment.\nThe study endpoint was tumor growth inhibition (TGI). […] TGI is expressed as: TGI (%)=100×(1−T/C). […]"}, "mdx mouse": {"tested_on": "mdx mouse", "experiment": "mdx mouse model of Duchenne muscular dystrophy (DMD)", "assay_type": "in vivo", "details": "mdx mice, vs MDX-Vehicle", "protocol": "The effect of cilnidipine and the cilnidipine derivative NS4-043 in the mdx mouse model of Duchenne muscular dystrophy (DMD) model was evaluated. The mdx mouse has a point mutation in its DMD gene, changing the amino acid coding for a glutamine to a stop codon, which causes the muscle cells to produce a small, nonfunctional dystrophin protein.\nAnimals were dosed once daily with vehicle, idebenone or cilnidipine on study days: 0 to 20.\nMice were evaluated by a rotarod test on study days 19 and 20. Body weight was measured throughout the study period. […] (CK) and […] (LDH), two biomarkers of DMD, were measured on day 21."}, "[4]": {"tested_on": "MC38 cells, a murine colon adenocarcinoma cell line", "experiment": "In vivo anti-tumor effect in MC38 tumor-bearing C57BL/6 mice", "set-up": "species or system mouse", "details": "i.t. on days 10 and 14 after tumor inoculation; vs control mice", "protocol": "The in vivo anti-tumor effect of cilnidipine is assessed in MC38 tumor-bearing C57BL/6 mice. Five or seven week old C57BL/6 mice are maintained under specific pathogen-free (SPF) conditions. Mice are injected subcutaneously with 5×10^5 MC38 cells, a murine colon adenocarcinoma cell line, and treated i.t. with cilnidipine on days 10 and 14 after tumor inoculation. Tumor volume is measured at the various time points."}, "[5]": {"details": "10 mg/kg once daily days 0 to 20, measured day 21"}, "[6]": {"details": "200 mg/kg once daily days 0 to 20, measured day 21"}},
  "data": [
    {"smiles": "COCCOC(=O)C1=C(C)NC(C)=C(C(=O)OC/C=C/c2ccccc2)C1c1cccc([N+](=O)[O-])c1", "note": "(stereo not drawn) [Cilnidipine]", "values": [
      {"measurement": "anti-proliferative effect on cancer cell lines", "setting": "[1]", "result": "has an anti-proliferative effect on the cell lines"},
      {"measurement": "phagocytic activity of macrophages", "setting": "[2]", "result": "enhanced phagocytic activity of macrophages in a dose dependent manner"},
      {"measurement": "Tumor Growth Inhibition (TGI) on Day 20, TGI vs G01", "setting": "[3]; Group 4: cilnidipine 10 mg/kg p.o. QD × 21 days", "result": 9.014, "unit": "%"},
      {"measurement": "Tumor Growth Inhibition (TGI) on Day 20, TGI vs G01", "setting": "[3]; Group 4: cilnidipine 10 mg/kg p.o. QD × 21 days, listed as cilnidipine", "result": 9.01, "unit": "%"},
      {"measurement": "plasma CK", "setting": "mdx mouse; [5]", "result": "significantly suppressed plasma CK"},
      {"measurement": "plasma LDH", "setting": "mdx mouse; [5]", "result": "significantly decreased plasma LDH"},
      {"measurement": "tumor growth", "setting": "[4]", "result": "reduces tumor growth as compared to control mice"}
    ]},
    {"smiles": "Nc1ccn([C@@H]2O[C@H](CO)[C@@H](O)C2(F)F)c(=O)n1", "note": "[Gemcitabine]", "values": [
      {"measurement": "Tumor Growth Inhibition (TGI) on Day 20, TGI vs G01", "setting": "[3]; Group 2: gemcitabine 30 mg/kg i.p. Q3D × 4", "result": 15.273, "unit": "%"},
      {"measurement": "Tumor Growth Inhibition (TGI) on Day 20, TGI vs G01", "setting": "[3]; Group 3: gemcitabine 100 mg/kg i.p. Q3D × 4", "result": 30.717, "unit": "%"}
    ]},
    {"smiles": "COC1=C(OC)C(=O)C(CCCCCCCCCCO)=C(C)C1=O", "note": "[Idebenone]", "values": [
      {"measurement": "plasma CK", "setting": "mdx mouse; [6]", "result": "but not idebenone, significantly suppressed plasma CK"},
      {"measurement": "plasma LDH", "setting": "mdx mouse; [6]", "result": "significantly decreased plasma LDH"}
    ]},
    {"smiles": "COCCOC(=O)C1=C(C)NC(C)=C(C(=O)OC/C=C/c2ccncc2)C1c1ccccc1[N+](=O)[O-]", "note": "(stereo not drawn) [NS4-043]", "values": [
      {"measurement": "plasma LDH", "setting": "mdx mouse; [5]", "result": "did not significantly decrease plasma LDH"}
    ]}
  ]
}
